Test results reported in PMC12254338 (Scientific Reports, 2025).
No end group written: not given here.

Biological target: T1, Vps4p^∆N (lacks the MIT domain and linker; residues 101–437) (Saccharomyces cerevisiae, UniProt P52917)
T1 sequence (P52917 101-437): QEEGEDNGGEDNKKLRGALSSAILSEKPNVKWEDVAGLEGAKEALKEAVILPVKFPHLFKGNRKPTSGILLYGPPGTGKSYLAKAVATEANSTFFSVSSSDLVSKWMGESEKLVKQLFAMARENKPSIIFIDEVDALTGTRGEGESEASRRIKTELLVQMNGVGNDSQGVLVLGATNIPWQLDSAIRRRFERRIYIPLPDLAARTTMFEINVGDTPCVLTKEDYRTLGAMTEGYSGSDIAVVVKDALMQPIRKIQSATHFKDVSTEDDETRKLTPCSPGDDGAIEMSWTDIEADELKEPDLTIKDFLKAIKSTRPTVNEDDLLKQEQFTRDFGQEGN
T1 sequence (Q06263 280-330 partner limits assumed): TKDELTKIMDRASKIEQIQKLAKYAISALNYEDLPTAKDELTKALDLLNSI
Assay: Fluorescence polarization peptide binding assay to Vps4p^∆N
Design: species or system S. cerevisiae
Conditions: ratio of affinities

EKEKEKEK-NH2 [(EK)4]
Fold tighter binding than (KE)4: 6 fold
